Experimental data from US10214491B2, “Activators and therapeutic applications thereof” (THE JOHNS HOPKINS UNIVERSITY, priority 2007, dated 2019).

Test system: p53, Mdm2 and p21 levels in A375 melanoma cells
Assay: Immunoblotting and immunofluorescence for p53, Mdm2 and p21 levels
Assay type: cell-based
Conditions: A375, 24 hours
Description: To study the effect of compounds on endogenous protein levels, A375 melanoma cells were treated with the compounds for 24 hours. Cellular lysates were prepared in lysis buffer containing 0.5% NP-40 with proteinase inhibitors. Protein (20-30 μg) was separated by sodium dodecyl sulphate-polyacrylamide gel electrophoresis (SDS-PAGE) followed by transfer to PVDF membrane (Immobilon™-P, Millipore, Bedford, Mass., USA). Immunoblotting was carried out using DO-1 antibody for p53, 2A10 for Mdm2 and anti-p21 (Becton Dickinson) to detect p21, followed by secondary antibodies conjugated with horseradish peroxidase (p53) or biotin followed by streptavidin-horseradish peroxidase (Mdm2 and p21) after which proteins were detected with enhanced chemiluminescence (ECL, Amersham Life Sciences). Equal protein loading was verified using GAPDH (p9.B.88, Europa Bioproducts Ltd, UK) as a protein loading control.
Immunofluorescence staining was carried out to determine the correct localisation of p53 and to detect H2AX phosphorylation indicative of genotoxic stress. Cells were treated with the compounds and fixed in paraformaldehyde (3.5 PFA, 25 min RT). The coverslips were permeabilised in 0.5% NP-40 and blocked in 3% bovine serum albumin (BSA). p53 was detected by staining with FL-393 antibody (Santa Cruz, 1:50, 1 h at +37° C.) followed by Alexa-594 conjugated secondary antibody (Molecular Probes, 1:200, 1 h at +37° C.), phospho-H2AX was detected by staining with anti-H2AX (P-Ser-139) antibody (Upstate, 1:200 1 h at +37° C.) followed by Alexa-488 conjugated secondary antibody (Molecular Probes, 1:200, 1 h at +37° C.). Nuclei were stained with Hoechst 33342. Images were captured using the Zeiss Axioplan fluorescence microscope equipped with Zeiss AxioCam HRc CCD-camera and AxioVision 4.5 software using 40×, NA=0,75 objective, Chroma 31000, Chroma41001 and 41004 filters for Hoechst, Alexa488 and Alexa594, respectively.

Row | SMILES | Mdm2 induction (0.5 μM) | induction of p21 cyclin kinase inhibitor (0.5 μM) | Mdm2 induction (5 μM)
1 | CN(C)CCNC(=O)c1cccn2c(=O)c3cc4ccccc4cc3nc12 [Compound 21] | most prominent | most prominent | –
2 | Cc1cc(C)c2nc3nc(C)cc(C)c3c(N)c2c1 [Compound 22, 2,4,7,9-tetramethylbenzo[b]-1,8-naphthyridin-5-amine] | – | – | most prominent
